Earlier results on one compound are cited in patent publication US9084838B2, “Feminine care absorbent article for use in warm climates” (Kimberly-Clark Worldwide, Inc., priority 2011, dated 2015).

The conditions of this data set: at 25° C.

Consider `O=C(O)CC(O)(CC(=O)O)C(=O)O` [citric acid], for which the pKa2 is recorded as 4.76 and the pKa3 is recorded as 6.40.
